From US11091522B2, “Peptidomimetic macrocycles and uses thereof” (priority 2018, dated 2021)

Tests used:
[1] = system: Caspase 3; test: Caspase 3 detection assay in SJSA-1 cells; type: cell-based, human; details: SJSA-1 cells, 48 h, Caspase 3 activation over DMSO-treated cells
Method: One the day of the assay, the media was replaced with fresh RPMI-11% FBS assay media. […] Control wells contained no cells, and received 200 μL of the assay media.
The solutions were serially diluted 33.3 times using sterile water to provide a range of 10× working stock solutions. […] 20 μL of the 10× working stock solutions were added to the appropriate wells. Row H of the plates had control wells. Wells H1-H3 received 20 μL of the assay media. […] Wells H10-H12 received media and had no cells. […] Nutlin-3a was diluted using the same dilution scheme as the peptides.
10 μL of the 10× stock solutions were added to the appropriate wells to achieve the final concentrations in a total volume of 100 μL. […] 48 h after incubation, 80 μL of the media was aspirated from each well. 100 μL of Caspase 3/7Glo assay reagent was added to each well. […] Data were analyzed as Caspase 3 activation over DMSO-treated cells.

[2] = system: SJSA-1 cells; test: Cell lysis by peptidomimetic macrocycles (LDH release); type: cell-based, human
Method: SJSA-1 cells were plated out one day in advance in clear, flat-bottom plates at a density of 7500 cells/well with 100 μL/well of growth media. Row H columns 10-12 were left empty to be treated with media alone. On the day of the assay, the media was exchanged with RPMI 1% FBS media to result in 90 μL of media per well. 10 mM stock solutions of the peptidomimetic macrocycles were prepared in 100% DMSO. The peptidomimetic macrocycles were diluted serially in 100% DMSO, and further diluted 20-fold in sterile water to prepare working stock solutions in 5% DMSO/water. The concentrations of the peptidomimetic macrocycles ranged from 500 μM to 62.5 μM.
10 μL of each compound solution was added to the 90 μL of SJSA-1 cells to yield final concentration of 50 μM to 6.25 μM in 0.5% DMSO-containing media. The negative control (non-lytic sample) was 0.5% of DMSO alone. The positive control (lytic) samples included 10 μM of Melittin and 1% Triton X-100. The cell plates were incubated for 1 h at 37° C. After incubation for 1 h, the morphology of the cells was examined by microscope. The plates were then centrifuged at 1200 rpm for 5 min at room temperature. 40 μL of the supernatant for each peptidomimetic macrocycle and control sample was transferred to clear assay plates. LDH release was measured using an LDH cytotoxicity assay kit.

[3] = system: MCF7 cells; type: cell-based, human; details: Homo sapiens
[4] = system: SJSA1 osteosarcoma cancer cells; test: cells; details: Homo sapiens, SJSA-1, 120 h, read-out: IC50, cellular proliferation
[5] = Pharmacokinetics of AP1 and palbociclib in non-tumor-bearing nu/nu mice; details: nu/nu, mouse, plasma, po, 75 mg/kg, nu/nu mice; for AUC(0-t): AUClast
[6] = Alone, AP1 20 mg/kg or palbociclib 75 mg/kg alone
[7] = Co-administered, AP1 20 mg/kg with palbociclib 75 mg/kg

For `CSCC[C@H](NC(=O)[C@H](C)NC(=O)[C@H](C)NC(=O)[C@]1(C)CCCC=CCCCCCC[C@@](C)(NC(=O)[C@H](Cc2ccccc2)NC(=O)[C@@H](NC(=O)[C@H](CC(C)C)NC(C)=O)[C@@H](C)O)C(=O)N[C@@H](C)C(=O)N[C@@H](Cc2ccc(O)cc2)C(=O)N[C@@H](Cc2c[nH]c3ccccc23)C(=O)N[C@@H](C)C(=O)N[C@@H](C)C(=O)N[C@@H](CC(C)C)C(=O)N1)C(=O)N[C@H](C)C(N)=O` (single isomer, unassigned) [compound 72], the “caspase 0.3 μM” value ([1]; 0.3 μM) was 1, the “caspase 3 μM” value ([1]; 3 μM) was 1 and the “caspase 10 μM” value ([1]; 10 μM) was 4. For the same compound, the “caspase 30 μM” value ([1]; 30 μM) was 10, the “6.25 μM % Lysed cells (1 h LDH)” value ([2]; 6.25 μM) was 2% and the “25 μM % Lysed cells (1 h LDH)” value ([2]; 25 μM) was 0%. For the same compound, the “50 μM % Lysed cells (1 h LDH)” value ([2]; 50 μM) was 3%.
Compound `CC(=O)c1c(C)c2cnc(Nc3ccc(N4CCNCC4)cn3)nc2n(C2CCCC2)c1=O` [palbociclib] has an inhibition at 0.0003 µM [3] of -10%, an inhibition at 0.001 µM [3] of -19% and an inhibition at 0.003 µM [3] of -9.7%. The inhibition at 0.01 µM [3] was 6.6%, the inhibition at 0.03 µM [3] was 21.1% and the inhibition at 0.1 µM [3] was 40.9%. The inhibition at 0.3 µM [3] was 62.9%, the inhibition at 1 µM [3] was 78.9% and the inhibition at 3 µM [3] was 84%. The inhibition at 10 µM [3] was 84.3%, the inhibition at 30 µM [3] was 100% and the IC50 [4] was 60 nM. The AUC(0-t) [5, 6] was 37000 ng·h/mL, the AUC(0-t) [5, 7] was 29000 ng·h/mL and the Cmax [5, 6] was 2900 ng/mL. It also gave a Cmax [5, 7] of 2600 ng/mL.
